IC50 data for 26 compounds are collected here from patent US20130005721A1, “INDOLIZINE INHIBITORS OF 5-LIPOXYGENASE” (PANMIRA PHARMACEUTICALS, LLC, priority 2009, published 2013).

Each structure is given as a SMILES string.

The term IC50 denotes the concentration needed to halve the response being measured.

The assay concerns human leukocytes (LTB4 production, calcium ionophore stimulated). Nature of the assay: Human Leukocyte LTB4 Inhibition Assay. It is filed as cell-based. To be noted: Leukocyte, LTB4 by ELISA, read-out: LTB4 HLA IC50. Here is the method: Human Leukocyte LTB4 Inhibition Assay
A non-limiting example of a human leukocyte inhibition assay is as follows; Blood was drawn from consenting human volunteers into heparanized tubes and 3% dextran 0.9% saline ⅓ rd volume added. After sedimentation of red blood cells a hypotonic lysis of remaining red blood cells was performed and leukocytes sedimented at 1200 rpm. The pellet was resuspended at 1.25×10^5 cells/ml and aliquoted into wells containing 1 μL 100% DMSO (vehicle) or 2.5 μL drug in 100% DMSO. Samples were incubated for 5 minutes at 37° C. and 2 μL calcium ionophore […] (from a 50 mM DMSO stock diluted just prior to the assay in Hanks balanced salt solution (Invitrogen)) to 1.25 mM) was added, solutions mixed and incubated for 30 minutes at 37° C. Samples were centrifuged at 1,200 rpm (−200×g) for 10 minutes at 4° C., plasma removed and a 1:4 dilution assayed for LTB4 concentration using ELISA (Assay Designs). Drug concentrations to achieve 50% inhibition (IC50's) of vehicle LTB4 were determined by nonlinear regression (Graphpad Prism) of % inhibition versus log drug concentration.
With `CCOC(=O)c1cc2cc(Cn3cc(C(O)(CC)C(F)(F)F)nn3)ccn2c1-c1cnn(C)c1` (centres unmarked) [Compound 1-74, 7-[4-(1-Hydroxy-1-trifluoromethyl-propyl)-[1,2,3]triazol-1-ylmethyl]-3-(1-methyl-1H-pyrazol-4-yl)-indolizine-2-carboxylic acid ethyl ester], the IC50 is less than 300 nM. The result for `CCC(O)(c1cn(Cc2ccn3c(-c4ccc(F)cc4)c(C(N)=O)c(Cl)c3c2)nn1)C(F)(F)F` (centres unmarked) [Compound 1-61, 1-Chloro-3-(4-fluoro-phenyl)-7-[4-(1-hydroxy-1-trifluoromethyl-propyl)-[1,2,3]triazol-1-ylmethyl]-indolizine-2-carboxylic acid amide] reads less than 300 nM; that for `CCC(O)(c1cn(Cc2ccn3c(-c4ccc(C)nc4)c(C(N)=O)cc3c2)nn1)C(F)(F)F` (centres unmarked) [Compound 1-71, 7-[4-(1-Hydroxy-1-trifluoromethyl-propyl)-[1,2,3]triazol-1-ylmethyl]-3-(6-methyl-pyridin-3-yl)-indolizine-2-carboxylic acid amide], more than 1000 nM. The result for `CCNC(=O)c1cc2cc(Cn3cc(C(O)(CC)C(F)(F)F)nn3)ccn2c1-c1ccc(F)cc1` (centres unmarked) [Compound 1-55, 3-(4-Fluoro-phenyl)-7-[4-(1-hydroxy-1-trifluoromethyl-propyl)-[1,2,3]triazol-1-ylmethyl]-indolizine-2-carboxylic acid ethylamide] reads 300 to 1000 nM; that for `CCOC(=O)c1cc2cc(Cn3cc(C(O)(CC)C(F)(F)F)nn3)ccn2c1C(C)C` (single isomer, unassigned) [Compound 1-77, 7-[4-(1-Hydroxy-1-trifluoromethyl-propyl)-[1,2,3]triazol-1-ylmethyl]-3-isopropyl-indolizine-2-carboxylic acid ethyl ester], less than 300 nM; that for `CCC(O)(c1cn(Cc2ccn3c(-c4ccc(F)cc4)c(CNCCC#N)cc3c2)nn1)C(F)(F)F` (centres unmarked) [Compound 1-42, 3-({3-(4-Fluoro-phenyl)-7-[4-(1-hydroxy-1-trifluoromethyl-propyl)-[1,2,3]triazol-1-ylmethyl]-indolizin-2-ylmethyl}-amino)-propionitrile], less than 300 nM. The result for `CCC(O)(c1cn(Cc2ccn3c(-c4ccc(C)nc4)c(C#N)cc3c2)nn1)C(F)(F)F` (single isomer, unassigned) [Compound 1-76, 7-[4-(1-Hydroxy-1-trifluoromethyl-propyl)-[1,2,3]triazol-1-ylmethyl]-3-(6-methyl-pyridin-3-yl)-indolizine-2-carbonitrile] reads less than 300 nM; that for `CCC(O)(c1cn(Cc2ccn3c(C(C)C)c(C#N)cc3c2)nn1)C(F)(F)F` (single isomer, unassigned) [Compound 1-81, 7-[4-(1-Hydroxy-1-trifluoromethyl-propyl)-[1,2,3]triazol-1-ylmethyl]-3-isopropyl-indolizine-2-carbonitrile], less than 300 nM. Regarding `CCC(O)(c1nnc(NCc2ccn3c(-c4ccc(F)cc4)c(C(N)=O)c(Br)c3c2)o1)C(F)(F)F` (centres unmarked) [Compound 1-17, 1-Bromo-3-(4-fluoro-phenyl)-7-{[5-(1-hydroxy-1-trifluoromethyl-propyl)-[1,3,4]oxadiazol-2-ylamino]-methyl}-indolizine-2-carboxylic acid amide], the IC50 is less than 300 nM. The result for `CCC(O)(c1cn(Cc2ccn3c(-c4ccc(F)cc4)c(/C=C/C(=O)O)cc3c2)nn1)C(F)(F)F` (centres unmarked) [Compound 1-41, (E)-3-{3-(4-Fluoro-phenyl)-7-[4-(1-hydroxy-1-trifluoromethyl-propyl)-[1,2,3]triazol-1-ylmethyl]-indolizin-2-yl}-acrylic acid] reads 300 to 1000 nM; that for `CCOC(=O)c1cc2cc(Cn3cc(C(O)(CC)C(F)(F)F)nn3)ccn2c1-c1ccnc(C)c1` (centres unmarked) [Compound 1-63, 7-[4-(1-Hydroxy-1-trifluoromethyl-propyl)-[1,2,3]triazol-1-ylmethyl]-3-(2-methyl-pyridin-4-yl)-indolizine-2-carboxylic acid ethyl ester], less than 300 nM; that for `CCC(O)(c1cn(Cc2ccn3c(-c4ccc(F)cc4)c(CN4CCOCC4)cc3c2)nn1)C(F)(F)F` (centres unmarked) [Compound 1-38, 1,1,1-Trifluoro-2-{1-[3-(4-fluoro-phenyl)-2-morpholin-4-ylmethyl-indolizin-7-ylmethyl]-1H-[1,2,3]triazol-4-yl}-butan-2-ol], 300 to 1000 nM. To `CCC(O)(c1cn(Cc2ccn3c(-c4ccc(F)cc4)c(C(N)=O)cc3c2)nn1)C(F)(F)F` (centres unmarked) [Compound 1-6, 3-(4-Fluoro-phenyl)-7-[4-(1-hydroxy-1-trifluoromethyl-propyl)-[1,2,3]triazol-1-ylmethyl]-indolizine-2-carboxylic acid amide] belongs less than 300 nM; to `CCNCc1cc2cc(Cn3cc(C(O)(CC)C(F)(F)F)nn3)ccn2c1-c1ccc(F)cc1` (centres unmarked) [Compound 1-60, 2-{1-[2-Ethylaminomethyl-3-(4-fluoro-phenyl)-indolizin-7-ylmethyl]-1H-[1,2,3]triazol-4-yl}-1,1,1-trifluoro-butan-2-ol], more than 1000 nM. To `CCOC(=O)c1cc2cc(CNc3nnc(C(O)(CC)C(F)(F)F)o3)ccn2c1-c1ccc(F)cc1` (centres unmarked) [Compound 1-11, 3-(4-Fluoro-phenyl)-7-{[5-(1-hydroxy-1-trifluoromethyl-propyl)-[1,3,4]oxadiazol-2-ylamino]-methyl}-indolizine-2-carboxylic acid ethyl ester] belongs less than 300 nM; to `CCC(O)(c1cn(Cc2ccn3c(-c4ccc(F)cc4)c(C=O)cc3c2)nn1)C(F)(F)F` (centres unmarked) [Compound 1-33, 3-(4-Fluoro-phenyl)-7-[4-(1-hydroxy-1-trifluoromethyl-propyl)-[1,2,3]triazol-1-ylmethyl]-indolizine-2-carbaldehyde], less than 300 nM; to `CCC(O)(c1cn(Cc2ccn3c(-c4ccc(F)cc4)c(C(N)=O)cc3c2)nn1)C(F)(F)F` (single isomer, unassigned) [Compound 1-9, 3-(4-Fluoro-phenyl)-7-[4-(1-hydroxy-1-trifluoromethyl-propyl)-[1,2,3]triazol-1-ylmethyl]-indolizine-2-carboxylic acid amide], less than 300 nM. On to `CCC(O)(c1cn(Cc2ccn3c(-c4cccc(F)c4)c(C(N)=O)cc3c2)nn1)C(F)(F)F` (centres unmarked) [Compound 1-48, 3-(3-Fluoro-phenyl)-7-[4-(1-hydroxy-1-trifluoromethyl-propyl)-[1,2,3]triazol-1-ylmethyl]-indolizine-2-carboxylic acid amide], for which the concentration for half-maximal inhibition (IC50) was less than 300 nM.

`CCOC(=O)c1cc2cc(Cn3cc(C(O)(CC)C(F)(F)F)nn3)ccn2c1-c1cncnc1` (centres unmarked) [Compound 1-73, 7-[4-(1-Hydroxy-1-trifluoromethyl-propyl)-[1,2,3]triazol-1-ylmethyl]-3-pyrimidin-5-yl-indolizine-2-carboxylic acid ethyl ester]: the IC50 is less than 300 nM.

As to `CCC(O)(c1cn(Cc2ccn3c(-c4ccc(F)cc4)c(C#N)cc3c2)nn1)C(F)(F)F` (centres unmarked) [Compound 1-16, 3-(4-Fluoro-phenyl)-7-[4-(1-hydroxy-1-trifluoromethyl-propyl)-[1,2,3]triazol-1-ylmethyl]-indolizine-2-carbonitrile], the IC50 was less than 300 nM. The result for `CCOC(=O)c1cc2cc(Cn3cc(C(O)(CC)C(F)(F)F)nn3)ccn2c1-c1ccc(=O)n(C)c1` (centres unmarked) [Compound 1-62, 7-[4-(1-Hydroxy-1-trifluoromethyl-propyl)-[1,2,3]triazol-1-ylmethyl]-3-(1-methyl-6-oxo-1,6-dihydro-pyridin-3-yl)-indolizine-2-carboxylic acid ethyl ester] reads 300 to 1000 nM; that for `CCC(O)(c1cn(Cc2ccn3c(-c4ccc(F)cc4)c(COC)cc3c2)nn1)C(F)(F)F` (centres unmarked) [Compound 1-44, 1,1,1-Trifluoro-2-{1-[3-(4-fluoro-phenyl)-2-methoxymethyl-indolizin-7-ylmethyl]-1H-[1,2,3]triazol-4-yl}-butan-2-ol], less than 300 nM; that for `CCC(O)(c1cn(Cc2ccn3c(-c4ccc(OC)nc4)c(C#N)cc3c2)nn1)C(F)(F)F` (single isomer, unassigned) [Compound 1-79, 7-[4-(1-Hydroxy-1-trifluoromethyl-propyl)-[1,2,3]triazol-1-ylmethyl]-3-(6-methoxy-pyridin-3-yl)-indolizine-2-carbonitrile], less than 300 nM. For `CCC(O)(c1cn(Cc2ccn3c(C(C)=O)c(C(N)=O)cc3c2)nn1)C(F)(F)F` (centres unmarked) [Compound 1-67, 3-Acetyl-7-[4-(1-hydroxy-1-trifluoromethyl-propyl)-[1,2,3]triazol-1-ylmethyl]-indolizine-2-carboxylic acid amide], the IC50 was more than 1000 nM. As to `CCOC(=O)c1cc2cc(Cn3cc(C(O)(CC)C(F)(F)F)nn3)ccn2c1-c1cccnc1` (centres unmarked) [Compound 1-24, 7-[4-(1-Hydroxy-1-trifluoromethyl-propyl)-[1,2,3]triazol-1-ylmethyl]-3-pyridin-3-yl-indolizine-2-carboxylic acid ethyl ester], the IC50 is less than 300 nM.

For the compound `CCC(O)(c1cn(Cc2ccn3c(-c4ccc(F)cc4)c(C(C)(C)O)cc3c2)nn1)C(F)(F)F` (centres unmarked) [Compound 1-7, 1,1,1-Trifluoro-2-{1-[3-(4fluoro-phenyl)-2-(1-hydroxy-1-methyl-ethyl)-indolizin-7-ylmethyl]-1H-[1,2,3]triazol-4-yl}-butan-2-ol], the half-inhibitory concentration (IC50) was less than 300 nM.
